As usually defined, the pKi is the negative decadic logarithm of the Ki, by convention in mol/L. The term pIC50 denotes the negative decadic logarithm of the IC50, by convention in mol/L.

pIC50, pKi: −log10 of the molar value. Read-outs that look alike come from different tables or passages of the source.

Assay [1] deals with T1, STK10 (Homo sapiens, UniProt O94804). Description: biochemical.
Assay [2] has as its target T2, full length GAK protein N-terminally fused with NanoLuc luciferase (Homo sapiens, UniProt O14976).
T2 sequence (O14976 2-1311): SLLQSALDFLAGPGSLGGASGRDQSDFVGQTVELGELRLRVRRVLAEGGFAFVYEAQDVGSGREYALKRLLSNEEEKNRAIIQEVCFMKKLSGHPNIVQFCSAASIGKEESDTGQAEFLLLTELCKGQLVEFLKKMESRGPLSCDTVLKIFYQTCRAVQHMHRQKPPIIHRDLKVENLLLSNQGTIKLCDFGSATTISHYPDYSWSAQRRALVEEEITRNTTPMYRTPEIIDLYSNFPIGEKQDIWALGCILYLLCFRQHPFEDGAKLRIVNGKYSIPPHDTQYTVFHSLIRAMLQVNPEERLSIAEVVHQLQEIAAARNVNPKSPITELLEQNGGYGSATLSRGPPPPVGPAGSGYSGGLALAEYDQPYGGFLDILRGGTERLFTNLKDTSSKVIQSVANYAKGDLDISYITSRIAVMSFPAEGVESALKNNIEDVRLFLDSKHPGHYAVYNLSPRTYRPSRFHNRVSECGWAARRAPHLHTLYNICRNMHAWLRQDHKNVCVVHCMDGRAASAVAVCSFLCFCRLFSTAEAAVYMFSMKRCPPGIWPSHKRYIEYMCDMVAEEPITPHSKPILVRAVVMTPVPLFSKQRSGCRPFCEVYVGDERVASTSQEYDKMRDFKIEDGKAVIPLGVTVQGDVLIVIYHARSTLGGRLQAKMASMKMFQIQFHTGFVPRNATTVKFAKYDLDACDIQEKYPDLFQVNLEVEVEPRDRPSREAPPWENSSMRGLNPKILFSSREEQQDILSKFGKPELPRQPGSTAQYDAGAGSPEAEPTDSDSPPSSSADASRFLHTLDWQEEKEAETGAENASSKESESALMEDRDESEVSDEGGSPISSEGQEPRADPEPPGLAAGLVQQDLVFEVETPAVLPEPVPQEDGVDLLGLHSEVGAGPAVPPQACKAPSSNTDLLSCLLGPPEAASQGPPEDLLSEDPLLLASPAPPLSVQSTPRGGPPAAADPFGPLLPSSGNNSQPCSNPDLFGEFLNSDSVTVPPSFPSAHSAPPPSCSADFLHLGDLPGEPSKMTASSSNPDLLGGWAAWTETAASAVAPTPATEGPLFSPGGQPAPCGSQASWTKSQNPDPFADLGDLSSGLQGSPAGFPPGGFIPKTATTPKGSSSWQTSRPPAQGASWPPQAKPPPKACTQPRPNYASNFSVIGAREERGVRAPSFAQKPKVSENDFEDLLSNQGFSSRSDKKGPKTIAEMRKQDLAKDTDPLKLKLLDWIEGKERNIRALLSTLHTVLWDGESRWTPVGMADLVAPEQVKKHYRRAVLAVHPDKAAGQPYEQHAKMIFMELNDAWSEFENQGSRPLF
Description: cell-based. More on the design: species or system HEK293T.

The target in assay [3] is T3, SLK (Homo sapiens, UniProt Q9H2G2). Description: biochemical.
T3 sequence (Q9H2G2 34-292): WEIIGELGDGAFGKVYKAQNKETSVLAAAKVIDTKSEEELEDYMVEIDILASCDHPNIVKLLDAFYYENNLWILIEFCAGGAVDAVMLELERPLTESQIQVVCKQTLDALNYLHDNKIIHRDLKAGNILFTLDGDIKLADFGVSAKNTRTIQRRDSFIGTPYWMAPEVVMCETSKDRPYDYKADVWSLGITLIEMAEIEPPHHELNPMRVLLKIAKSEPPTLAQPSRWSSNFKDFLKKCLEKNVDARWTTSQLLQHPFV
Assay [4] deals with T4, GAK (Homo sapiens, UniProt O14976).
T4 sequence (O14976 12-347 limits assumed): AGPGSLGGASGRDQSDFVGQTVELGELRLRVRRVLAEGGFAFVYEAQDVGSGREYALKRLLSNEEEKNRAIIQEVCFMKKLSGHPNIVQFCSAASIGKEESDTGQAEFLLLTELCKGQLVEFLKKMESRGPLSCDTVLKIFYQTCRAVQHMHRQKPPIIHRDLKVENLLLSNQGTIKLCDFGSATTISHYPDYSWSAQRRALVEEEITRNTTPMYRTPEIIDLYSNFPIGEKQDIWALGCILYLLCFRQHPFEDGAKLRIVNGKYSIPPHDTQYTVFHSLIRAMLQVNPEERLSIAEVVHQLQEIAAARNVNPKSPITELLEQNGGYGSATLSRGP
Description: biochemical.

In assay [5] the target is T4, GAK. Put plainly: biochemical. The source holds these as a separate data set.
The target in assay [6] is T1, STK10. Put plainly: biochemical. This is another data set of the same source.
The target in assay [7] is T2, full length GAK protein N-terminally fused with NanoLuc luciferase. Description: cell-based. More on the design: species or system HEK293T. The source holds these as a separate data set.
In assay [8] the target is T3, SLK. Put plainly: biochemical. The source holds these as a separate data set.
Assay [9] concerns the target T2, full length GAK protein N-terminally fused with NanoLuc luciferase. Description: cell-based. More on the design: species or system HEK293T. The source holds these as a separate data set.
Assay [10] deals with T3, SLK. Description: biochemical. This is another data set of the same source.
The target in assay [11] is T1, STK10. Put plainly: biochemical. This is another data set of the same source.
In assay [12] the target is T2, full length GAK protein N-terminally fused with NanoLuc luciferase. Description: cell-based. More on the design: species or system HEK293T. The source holds these as a separate data set.
The target of assay [13] is T3, SLK. Put plainly: TR-FRET binding displacement assay. A general note: Time-resolved FRET reads energy transfer from a long-lived donor to a nearby acceptor.
Assay [14] concerns the target T1, STK10. Put plainly: TR-FRET binding displacement assay.
Assay [15] deals with T4, GAK. Put plainly: biochemical. The source holds these as a separate data set.

T1 sequence (O94804 36-294 limits assumed): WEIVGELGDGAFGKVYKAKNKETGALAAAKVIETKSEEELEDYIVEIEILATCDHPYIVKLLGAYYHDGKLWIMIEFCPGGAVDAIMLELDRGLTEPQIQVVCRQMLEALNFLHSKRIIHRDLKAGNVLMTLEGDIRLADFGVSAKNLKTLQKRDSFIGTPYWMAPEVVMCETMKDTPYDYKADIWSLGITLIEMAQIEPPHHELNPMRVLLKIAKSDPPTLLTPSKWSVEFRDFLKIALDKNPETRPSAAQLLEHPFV

In the case of `COc1ccc2c(Nc3cc(OC)c(OC)c(OC)c3)c(C#N)cnc2c1` [compound 53, 53], the pKi is 5.92 on STK10 [1], 5.68 on SLK [3] and 8.70 at GAK [4]. The pIC50 in assay [2] is 7.11.

For `COc1cc(Nc2c(C#N)cnc3ccc(S(C)(=O)=O)cc23)cc(OC)c1OC` [compound 49, 49], the pKi is 5.82 at STK10 [1], 5.92 at SLK [3] and 6.68 on GAK [4]. Moreover, in [2], the pIC50 is below 5.30.

Take `COc1ccc2ncc(C#N)c(Nc3cc(OC)c(OC)c(OC)c3)c2c1` [compound 47, 47]: the pKi at STK10 [1] was 5.72; at SLK [3], 5.49; on GAK [4], 8.62. The pIC50 in [2] is 7.04.

Take `C#Cc1cccc(Nc2ncnc3cc(I)ccc23)c1F` [compound 92, 92]: the pKi on GAK [5] is 7.03; at STK10 [6] it was 6.57; at SLK [8], 6.07. The compound further gave a pIC50 in assay [7] below 5.30.

Consider `C#Cc1ccc(F)c(Nc2ncnc3cc(I)ccc23)c1` [compound 91, 91], for which the pKi was 6.96 at GAK [5], 6.60 on STK10 [6] and 6.41 at SLK [8]. The compound further gave a pIC50 in assay [7] below 5.30.

Regarding `Fc1ccc(Nc2ccnc3ccc(Br)cc23)cc1` [compound 108, 108], the pIC50 in [9] is 6.03. The pKi is 4.44 at SLK [10] and 4.68 on STK10 [11].

In the case of `C#Cc1cccc(Nc2c(C#N)cnc3cc(I)ccc23)c1` [compound 86, 4-((3-ethynylphenyl)amino)-7-iodoquinoline-3-carbonitrile], the negative-log IC50 (pIC50) in assay [12] was below 5.30. In addition, the negative-log Ki (pKi) at SLK [13] was 7.12; on STK10 [14] it was 7.10; at GAK [15] it was 7.72.

In the case of `COc1cc2ncc(C#N)c(Nc3cc(OC)c(OC)c(OC)c3)c2cc1OC` [compound 48, 48], the pKi at STK10 [1] (read-out: STK10 Ki, binder) is 6.38; at SLK [3] (read-out: SLK Ki, binder) it was 6.24; at GAK [4] (read-out: GAK Ki, binder) it was 9.07. The pIC50 in assay [2] (read-out: NanoBRET GAK IC50, binder) was 8.22.

With `COc1cc(Nc2c(C#N)cnc3cc(Cl)ccc23)cc(OC)c1OC` [compound 50, 50], the values for the pKi at STK10 [1], at SLK [3] and on GAK [4] were 6.10, 5.85 and 8.18, respectively. The pIC50 in [2] is 6.33.

For the compound `C#Cc1cc(Nc2ncnc3cc(I)ccc23)ccc1Cl` [compound 94, 94], the negative-log Ki (pKi) at GAK [5] is 7.04; on STK10 [6], 6.62; at SLK [8] it was 6.03. The same compound gave a pIC50 in assay [7] below 5.30.

`C#Cc1ccc(F)c(Nc2ncnc3cc(OC)c(OC)cc23)c1` [compound 99, 99]: the values for the pKi at GAK [5], on STK10 [6] and on SLK [8] were 8.24, 6.66 and 6.55, respectively. This compound also showed a pIC50 in assay [7] of 6.41.

Turning to `C#Cc1cc(Nc2ncnc3cc(OC)c(OC)cc23)ccc1Cl` [compound 102, 102], the pKi at GAK [5] is 8.47; on STK10 [6], 7.12; at SLK [8], 6.48. The compound also had a pIC50 in assay [7] of 6.41.

For the compound `COc1cc(Nc2c(C#N)cnc3cc(Br)ccc23)cc(OC)c1OC` [compound 51, 51], the negative-log Ki (pKi) on STK10 [1] was 6.36; at SLK [3], 6.15; on GAK [4], 8.54. Moreover, the pIC50 in assay [2] was 6.85.

Take `COc1cc(Nc2c(C#N)cnc3ccc(I)cc23)cc(OC)c1OC` [compound 46, 46]: the figures for the pKi on STK10 [1], at SLK [3] and at GAK [4] were 5.38, 5.01 and 8.32, respectively. In assay [2], the pIC50 was 6.59.

Take `COc1cc(Nc2c(C#N)cnc3ccc(Br)cc23)cc(OC)c1OC` [compound 45, 45]: the pIC50 in assay [2] was 6.70. Also, the pKi is 5.03 at SLK [3] and 8.64 at GAK [4].

For the compound `C#Cc1cc(Nc2ncnc3ccc(I)cc23)ccc1Cl` [compound 98, 98], the pKi at GAK [5] was 6.85; on STK10 [6] it was 6.00; at SLK [8], 5.15. Further, the pIC50 in assay [7] was below 5.30.

On to `C#Cc1cc(Nc2ncnc3cc(C#N)ccc23)ccc1F` [compound 89, 89], for which the pKi on GAK [5] was 6.26; at STK10 [6], 6.06; on SLK [8], 6.16. In assay [7], this compound had a pIC50 below 5.30.

`COc1cc(Nc2c(C#N)cnc3ccccc23)cc(OC)c1OC` [compound 43, 43]: the pKi on STK10 [1] is 5.33; at SLK [3], 5.11; at GAK [4] it was 8.06. The compound further gave a pIC50 in [2] of 6.48.

With `C#Cc1cc(Nc2ncnc3cc(C#N)ccc23)ccc1Cl` [compound 90, 90], the results for the pKi on GAK [5], at STK10 [6] and on SLK [8] were 6.49, 5.80 and 5.20, respectively. The pIC50 in assay [7] is below 5.30.

Take `C#Cc1cccc(Nc2ncnc3cc(C#N)ccc23)c1F` [compound 88, 88]: the figures for the pKi on GAK [5], at STK10 [6] and at SLK [8] were 6.48, 6.30 and 5.96, respectively. In assay [7], this compound had a pIC50 below 5.30.

As to `C#Cc1cc(Nc2ncnc3ccc(I)cc23)ccc1F` [compound 97, 97], the pKi on GAK [5] was 7.17; at STK10 [6], 6.06; at SLK [8] it was 5.80. The same compound had a pIC50 in assay [7] below 5.30.

Consider `COc1cc(Nc2c(C#N)cnc3ccc(Cl)cc23)cc(OC)c1OC` [compound 44, 44], for which the pKi at STK10 [1] is 4.59; at SLK [3], 4.28; at GAK [4] it was 8.42. For the same compound, in [2], the negative-log IC50 (pIC50) is 6.62.

In the case of `COc1cc(Nc2c(C#N)cnc3cc(I)ccc23)cc(OC)c1OC` [compound 52, 52], the pKi at STK10 [1] is 6.70; at SLK [3] it was 6.31; at GAK [4], 8.28. Moreover, the pIC50 in assay [2] is 6.70.

For `C#Cc1ccc(F)c(Nc2ncnc3ccc(I)cc23)c1` [compound 95, 95], the results for the pKi at GAK [5], at STK10 [6] and on SLK [8] were 6.72, 5.31 and 5.35, respectively. For the same compound, the pIC50 in assay [7] was below 5.30.
